Several values for one entry are separate records, joined by “and”; a condition that tells them apart may be missing. Identical values can stand only once.
target: T1, USP7 (Homo sapiens, UniProt Q93009); test: USP7, Ub-PLA2 assay; type: biochemical; details: Ub-PLA2 / NBD C6-HPC fluorescence, 30 minute preincubation; read-out: EC50 for inhibition of USP7
T1 construct: full length human USP7 protein; made in house
Summary of the method: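 Compounds tested against USP7 with DMSO vehicle control and NEM-treated wells as background. Fluorescence (RFU) read-out; % inhibition normalized per plate to mean DMSO and NEM controls.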

T1 sequence (Q93009 whole entry): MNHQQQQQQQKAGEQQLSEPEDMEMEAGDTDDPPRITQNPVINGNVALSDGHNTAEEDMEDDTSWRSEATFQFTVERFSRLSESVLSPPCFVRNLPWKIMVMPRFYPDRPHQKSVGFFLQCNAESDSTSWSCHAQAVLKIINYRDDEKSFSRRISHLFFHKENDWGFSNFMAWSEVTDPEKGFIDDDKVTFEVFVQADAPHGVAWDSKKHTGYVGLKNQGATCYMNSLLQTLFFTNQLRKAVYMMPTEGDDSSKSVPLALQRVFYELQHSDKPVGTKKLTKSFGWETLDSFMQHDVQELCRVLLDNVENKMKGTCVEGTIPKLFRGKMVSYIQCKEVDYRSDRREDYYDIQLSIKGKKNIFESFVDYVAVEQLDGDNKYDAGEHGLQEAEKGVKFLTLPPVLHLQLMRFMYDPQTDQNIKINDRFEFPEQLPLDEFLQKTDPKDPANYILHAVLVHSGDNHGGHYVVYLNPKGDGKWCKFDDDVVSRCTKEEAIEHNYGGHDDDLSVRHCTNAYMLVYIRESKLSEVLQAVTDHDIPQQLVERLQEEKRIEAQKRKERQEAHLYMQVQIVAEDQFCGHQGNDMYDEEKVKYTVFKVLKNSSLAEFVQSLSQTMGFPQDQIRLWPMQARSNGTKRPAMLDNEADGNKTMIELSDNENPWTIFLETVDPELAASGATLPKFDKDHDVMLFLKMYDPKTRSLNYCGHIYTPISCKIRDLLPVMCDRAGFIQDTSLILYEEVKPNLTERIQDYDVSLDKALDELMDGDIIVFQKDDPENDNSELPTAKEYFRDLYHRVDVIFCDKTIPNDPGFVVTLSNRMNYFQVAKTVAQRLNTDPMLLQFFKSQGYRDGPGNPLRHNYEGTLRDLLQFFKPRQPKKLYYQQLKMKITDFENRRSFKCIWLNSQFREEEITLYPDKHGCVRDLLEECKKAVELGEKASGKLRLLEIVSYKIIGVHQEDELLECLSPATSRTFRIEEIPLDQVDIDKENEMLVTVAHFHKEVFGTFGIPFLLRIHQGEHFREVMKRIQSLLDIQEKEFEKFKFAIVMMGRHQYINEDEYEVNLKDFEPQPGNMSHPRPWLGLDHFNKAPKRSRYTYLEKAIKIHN

First: CC(=O)c1cc([N+](=O)[O-])c(Sc2ccc3c(C)cc(=O)oc3c2)s1 [Example 38, 7-[(5-acetyl-3-nitro-2-thienyl)sulfanyl]-4-methyl-chromen-2-one]
Second: CC(=O)c1cc([N+](=O)[O-])c(Sc2cccc(Cl)c2)s1 [Example 6, 1-[5-(3-Chlorophenylsulfanyl)-4-nitro-2-thienyl]ethanone]
The EC50 of the first is higher: over 10000 nM for the first, 1000 to 10000 nM for the second.

O=C(NCCCN1CCCC(O)C1)c1cc([N+](=O)[O-])c(Sc2c(Cl)cncc2Cl)s1 (stereo not shown) [Example 223, 5-((3,5-dichloropyridin-4-yl)thio)-N-(3-(3-hydroxypiperidin-1-yl)propyl)-4-nitrothiophene-2-carboxamide] and O=C(NCCCN1CCC(F)CC1)c1cc([N+](=O)[O-])c(Sc2c(Cl)cncc2Cl)s1 [Example 228, 5-((3,5-dichloropyridin-4-yl)thio)-N-(3-(4-fluoropiperidin-1-yl)propyl)-4-nitrothiophene-2-carboxamide] fall in the same range of EC50: 1000 to 10000 nM for the first, 1000 to 10000 nM for the second.

CN(C)CCCOc1cccc(CNC(=O)c2cc([N+](=O)[O-])c(Sc3c(Cl)cncc3Cl)s2)c1 [Example 126, 5-[(3,5-dichloro-4-pyridyl)sulfanyl]-N-[[3-(3-dimethylaminopropoxy)phenyl]methyl]-4-nitro-thiophene-2-carboxamide] and O=C(NCc1cccc(OC(F)(F)F)c1)c1cc([N+](=O)[O-])c(Sc2c(Cl)cncc2Cl)s1 [Example 68, 5-((3,5-dichloropyridin-4-yl)thio)-4-nitro-N-(3-(trifluoromethoxy)benzyl)thiophene-2-carboxamide] cannot be ordered by EC50: at most 1000 nM for the first, 1000 to 10000 nM for the second.

CN1CCC(NC(=O)c2cc([N+](=O)[O-])c(Sc3c(F)cncc3F)s2)CC1 [Example 256, 5-((3,5-difluoropyridin-4-yl)thio)-N-(1-methylpiperidin-4-yl)-4-nitrothiophene-2-carboxamide] and CN1CCC(NC(=O)c2cc([N+](=O)[O-])c(Sc3c(Cl)cccc3Cl)s2)CC1 [Example 269, 5-((2,6-dichlorophenyl)thio)-N-(1-methylpiperidin-4-yl)-4-nitrothiophene-2-carboxamide] fall in the same range of EC50: 1000 to 10000 nM for the first, 1000 to 10000 nM for the second.

O=C(NC1CN2CCC1CC2)c1cc([N+](=O)[O-])c(Sc2c(Cl)cncc2Cl)s1 (stereo not shown) [Example 202, 5-((3,5-dichloropyridin-4-yl)thio)-4-nitro-N-(quinuclidin-3-yl)thiophene-2-carboxamide] and CN1CCCC(NC(=O)c2cc([N+](=O)[O-])c(Sc3c(Cl)cncc3Cl)s2)C1 (stereo not shown) [Example 189, 5-((3,5-dichloropyridin-4-yl)thio)-N-(1-methylpiperidin-3-yl)-4-nitrothiophene-2-carboxamide] cannot be ordered by EC50: at most 1000 nM for the first, at most 1000 nM for the second.

First: COC(=O)c1cc([N+](=O)[O-])c(Sc2nc3cc(Cl)c(F)cc3[nH]2)s1 [Example 265, Methyl 5-((5-chloro-6-fluoro-1H-benzo[d]imidazol-2-yl)thio)-4-nitrothiophene-2-carboxylate]
Second: CC(=O)c1cc([N+](=O)[O-])c(Sc2ccccc2Cl)s1 [Example 1, 1-[5-(2-Chlorophenylsulfanyl)-4-nitro-2-thienyl]ethanone]
The EC50 of the first is lower: 1000 to 10000 nM for the first, over 10000 nM for the second.

O=C(NCc1ccc(F)cc1)c1cc([N+](=O)[O-])c(Sc2c(Cl)cncc2Cl)s1 [Example 107, 5-((3,5-dichloropyridin-4-yl)thio)-N-(4-fluorobenzyl)-4-nitrothiophene-2-carboxamide] and O=C(NCc1ccccc1)c1cc([N+](=O)[O-])c(Sc2c(Cl)cncc2Cl)s1 [Example 45, N-benzyl-5-[(3,5-dichloro-4-pyridyl)sulfanyl]-4-nitro-thiophene-2-carboxamide] cannot be ordered by EC50: at most 1000 nM for the first, 1000 to 10000 nM for the second.

CC(=O)c1cc([N+](=O)[O-])c(Sc2ccc(C(F)(F)F)cc2)s1 [Example 10, 1-{5-[4-(Trifluoromethyl)phenylsulfanyl]-4-nitro-2-thienyl}ethanone] and O=C(Nc1ccc(F)c(C(F)(F)F)c1)c1cc([N+](=O)[O-])c(Sc2c(Cl)cncc2Cl)s1 [Example 140, 5-((3,5-dichloropyridin-4-yl)thio)-N-(4-fluoro-3-(trifluoromethyl)phenyl)-4-nitrothiophene-2-carboxamid] cannot be ordered by EC50: 1000 to 10000 nM for the first, at most 1000 nM for the second.

CC(=O)N1CCC(NC(=O)c2cc([N+](=O)[O-])c(Sc3c(Cl)cncc3Cl)s2)C1 (stereo not shown) [Example 199, N-(1-acetylpyrrolidin-3-yl)-5-((3,5-dichloropyridin-4-yl)thio)-4-nitrothiophene-2-carboxamide] and CC(C)(C)OC(=O)N1CCC(NC(=O)c2cc([N+](=O)[O-])c(Sc3c(Cl)cncc3Cl)s2)CC1 [Example 85, tert-butyl 4-(5-((3,5-dichloropyridin-4-yl)thio)-4-nitrothiophene-2-carboxamido)piperidine-1-carboxylate] fall in the same range of EC50: 1000 to 10000 nM for the first, 1000 to 10000 nM for the second.

CN(C)C(=O)c1cc([N+](=O)[O-])c(Sc2c(Cl)cncc2Cl)s1 [Example 49, 5-[(3,5-dichloro-4-pyridyl)sulfanyl]-N,N-dimethyl-4-nitro-thiophene-2-carboxamide] and CN(C)CCNC(=O)CNC(=O)c1cc([N+](=O)[O-])c(Sc2c(Cl)cncc2Cl)s1 [Example 217, 5-((3,5-dichloropyridin-4-yl)thio)-N-(2-((2-(dimethylamino)ethyl)amino)-2-oxoethyl)-4-nitrothiophene-2-carboxamide] fall in the same range of EC50: 1000 to 10000 nM for the first, 1000 to 10000 nM for the second.

COc1cc(NC(=O)c2cc([N+](=O)[O-])c(Sc3c(Cl)cncc3Cl)s2)cc(OC)c1OC [Example 169, 5-((3,5-dichloropyridin-4-yl)thio)-4-nitro-N-(3,4,5-trimethoxyphenyl)thiophene-2-carboxamide] and COc1ccc(CNC(=O)c2cc([N+](=O)[O-])c(Sc3c(Cl)cncc3Cl)s2)cc1OC [Example 98, 5-((3,5-dichloropyridin-4-yl)thio)-N-(3,4-dimethoxybenzyl)-4-nitrothiophene-2-carboxamide] cannot be ordered by EC50: at most 1000 nM for the first, at most 1000 nM for the second.

CC(O)c1ccc(NC(=O)c2cc([N+](=O)[O-])c(Sc3c(Cl)cncc3Cl)s2)cc1 (stereo not shown) [Example 131, 5-((3,5-dichloropyridin-4-yl)thio)-N-(4-(1-hydroxyethyl)phenyl)-4-nitrothiophene-2-carboxamide] and O=C(Nc1ccc(Br)cc1)c1cc([N+](=O)[O-])c(Sc2c(Cl)cncc2Cl)s1 [Example 152, N-(4-bromophenyl)-5-((3,5-dichloropyridin-4-yl)thio)-4-nitrothiophene-2-carboxamide] cannot be ordered by EC50: at most 1000 nM for the first, at most 1000 nM for the second.

COc1cccc(CN(C)C(=O)c2cc([N+](=O)[O-])c(Sc3c(Cl)cncc3Cl)s2)c1 [Example 67, 5-((3,5-dichloropyridin-4-yl)thio)-N-(3-methoxybenzyl)-N-methyl-4-nitrothiophene-2-carboxamide] and COc1ccccc1CCNC(=O)c1cc([N+](=O)[O-])c(Sc2c(Cl)cncc2Cl)s1 [Example 113, 5-((3,5-dichloropyridin-4-yl)thio)-N-(2-methoxyphenethyl)-4-nitrothiophene-2-carboxamide] cannot be ordered by EC50: 1000 to 10000 nM for the first, at most 1000 nM for the second.

O=C(NC1CCC(O)CC1)c1cc([N+](=O)[O-])c(Sc2c(Cl)cncc2Cl)s1 (stereo not shown) [Example 77, 5-((3,5-dichloropyridin-4-yl)thio)-N-(4-hydroxycyclohexyl)-4-nitrothiophene-2-carboxamide] and CCOC(=O)CNC(=O)c1cc([N+](=O)[O-])c(Sc2c(Cl)cncc2Cl)s1 [Example 209, Ethyl 2-(5-((3,5-dichloropyridin-4-yl)thio)-4-nitrothiophene-2-carboxamido)acetate] fall in the same range of EC50: 1000 to 10000 nM for the first, 1000 to 10000 nM for the second.

Going from COc1ccc(CNC(C)c2cc([N+](=O)[O-])c(Sc3ccc(Cl)cc3Cl)s2)cc1 (stereo not shown) [Example 30, 1-[5-(2,4-dichlorophenyl)sulfanyl-4-nitro-2-thienyl]-N-[(4-methoxyphenyl)methyl]ethanamine] to CC(=O)c1ccc(NC(=O)c2cc([N+](=O)[O-])c(Sc3c(Cl)cncc3Cl)s2)cc1 [Example 183, N-(4-acetylphenyl)-5-((3,5-dichloropyridin-4-yl)thio)-4-nitrothiophene-2-carboxamide], the EC50 falls from over 10000 nM to at most 1000 nM.

CS(=O)(=O)c1ccc(NC(=O)c2cc(C#N)c(Sc3c(Cl)cncc3Cl)s2)cc1 [Example 208, 4-cyano-5-((3,5-dichloropyridin-4-yl)thio)-N-(4-(methylsulfonyl)phenyl)thiophene-2-carboxamide] and O=C(Nc1cccc(Br)c1)c1cc([N+](=O)[O-])c(Sc2c(Cl)cncc2Cl)s1 [Example 133, N-(3-bromophenyl)-5-((3,5-dichloropyridin-4-yl)thio)-4-nitrothiophene-2-carboxamide] cannot be ordered by EC50: at most 1000 nM for the first, at most 1000 nM for the second.

O=C(c1cc([N+](=O)[O-])c(Sc2c(Cl)cncc2Cl)s1)N1CCN(CCO)CC1 [Example 61, (5-((3,5-dichloropyridin-4-yl)thio)-4-nitrothiophen-2-yl)(4-(2-hydroxyethyl)piperazin-1-yl)methanone] and CN1CCN(c2ccc(NC(=O)c3cc([N+](=O)[O-])c(Sc4c(Cl)cncc4Cl)s3)cc2)CC1 [Example 79, 5-((3,5-dichloropyridin-4-yl)thio)-N-(4-(4-methylpiperazin-1-yl)phenyl)-4-nitrothiophene-2-carboxamide] fall in the same range of EC50: 1000 to 10000 nM for the first, 1000 to 10000 nM for the second.

O=C(Nc1cc(-c2ccccc2)n[nH]1)c1cc([N+](=O)[O-])c(Sc2c(Cl)cncc2Cl)s1 [Example 71, 5-((3,5-dichloropyridin-4-yl)thio)-4-nitro-N-(3-phenyl-1H-pyrazol-5-yl)thiophene-2-carboxamide] and Cc1nc(C)c(Cl)c(Sc2sc(C(=O)NC3CCN(C)CC3)cc2[N+](=O)[O-])c1Cl [Example 243, 5-((3,5-dichloro-2,6-dimethylpyridin-4-yl)thio)-N-(1-methylpiperidin-4-yl)-4-nitrothiophene-2-carboxamide] fall in the same range of EC50: 1000 to 10000 nM for the first, 1000 to 10000 nM for the second.

For CC(=O)c1cc([N+](=O)[O-])c(Sc2c(F)c(F)c(Cl)c(F)c2F)s1 [Example 272, 1-(5-((4-chloro-2,3,5,6-tetrafluorophenyl)thio)-4-nitrothiophen-2-yl)ethanone], the EC50 was 1000 to 10000 nM and > 10000 nM.
